Experimental data from ChEMBL document CHEMBL1132139, “2-Naphthylcarbapenems: broad spectrum antibiotics with enhanced potency against MRSA” (1999).
Values after ≈ are worked out from the molar mass of the structure shown.

What was measured:
Escherichia coli [1] = experiment: Compound was evaluated for the antibacterial activity against Escherichia coli as fold improvement in activity with respect to imipenem.; assay type: functional
Staphylococcus aureus [2] = experiment: Compound was evaluated for the antibacterial activity against methicillin-sensitive Staphylococcus aureus (MSSA)as fold improvement in activity with respect to imipenem.; assay type: functional
Staphylococcus aureus [3] = experiment: Compound was evaluated for the antibacterial activity against methicillin-resistant Staphylococcus aureus (MRSA)as fold improvement in activity with respect to imipenem.; assay type: functional
Serratia [4] = experiment: Compound was evaluated for the antibacterial activity against Serratia as fold improvement in activity with respect to imipenem.; assay type: functional
Pseudomonas aeruginosa [5] = experiment: Compound was evaluated for the antibacterial activity against Pseudomonas aeruginosa as fold improvement in activity with respect to imipenem.; assay type: functional
[6] = Compound was evaluated for the antibacterial activity against methicillin-resistant coagulase-negative staphylococci (MRCNS)as fold improvement in activity with respect to imipenem.; assay type: functional, Staphylococcus […]
Enterococcus [7] = experiment: Compound was evaluated for the antibacterial activity against Enterococcus as fold improvement in activity with respect to imipenem.; assay type: functional
Enterobacter [8] = experiment: Compound was evaluated for the antibacterial activity against Enterobacter as fold improvement in activity with respect to imipenem.; assay type: functional
Proteus [9] = experiment: Compound was evaluated for the antibacterial activity against Proteus as fold improvement in activity with respect to imipenem.; assay type: functional, Proteus sp.
Klebsiella [10] = experiment: Compound was evaluated for the antibacterial activity against Klebsiella.8 as fold improvement in activity with respect to imipenem.; assay type: functional
[11] = target: T1, Dipeptidase 1 (Sus scrofa) (UniProt P22412); experiment: Dehydropeptidase-1 susceptibility.
T1 sequence (whole entry): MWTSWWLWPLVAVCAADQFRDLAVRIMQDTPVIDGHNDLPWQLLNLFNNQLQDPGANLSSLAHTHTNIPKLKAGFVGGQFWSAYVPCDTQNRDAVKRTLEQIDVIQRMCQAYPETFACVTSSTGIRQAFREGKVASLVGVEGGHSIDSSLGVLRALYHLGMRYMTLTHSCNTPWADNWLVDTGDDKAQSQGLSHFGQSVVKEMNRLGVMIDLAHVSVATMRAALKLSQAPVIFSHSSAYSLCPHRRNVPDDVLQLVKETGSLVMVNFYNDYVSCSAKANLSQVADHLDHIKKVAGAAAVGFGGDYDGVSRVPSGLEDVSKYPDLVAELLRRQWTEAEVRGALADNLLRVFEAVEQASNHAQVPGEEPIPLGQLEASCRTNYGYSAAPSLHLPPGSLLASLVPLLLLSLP

Staphylococcus aureus [12] = experiment: Compound was evaluated for the antibacterial activity against methicillin-sensitive Staphylococcus aureus (MSSA).; assay type: functional
Staphylococcus aureus [13] = experiment: Compound was evaluated for the antibacterial activity against methicillin-resistant Staphylococcus aureus (MRSA).; assay type: functional
Klebsiella [14] = experiment: Compound was evaluated for the antibacterial activity against Klebsiella.8.; assay type: functional
Staphylococcus aureus [15] = experiment: Compound was evaluated for the anti-MRSA activity as MIC90.; assay type: functional
Proteus [16] = experiment: Compound was evaluated for the antibacterial activity against Proteus; assay type: functional, Proteus sp.
Staphylococcus aureus [17] = experiment: Compound was evaluated for the antibacterial activity against methicillin-resistant coagulase-negative staphylococci (MRCNS).; assay type: functional
Enterobacter [18] = experiment: Compound was evaluated for the antibacterial activity against Enterobacter.; assay type: functional
[19] = system: coagulase-negative Staphylococcus; experiment: Compound was evaluated for the anti-MRCNS activity as MIC50.
Pseudomonas aeruginosa [20] = experiment: Compound was evaluated for the antibacterial activity against Pseudomonas aeruginosa.; assay type: functional
Staphylococcus aureus [21] = experiment: Compound was evaluated for the anti-MRSA activity as MIC50; assay type: functional
Serratia [22] = experiment: Compound was evaluated for the antibacterial activity against Serratia.; assay type: functional
Enterococcus [23] = experiment: Compound was evaluated for the antibacterial activity against Enterococcus.; assay type: functional
Escherichia coli [24] = experiment: Compound was evaluated for the antibacterial activity against Escherichia coli.; assay type: functional
Klebsiella [25] = experiment: Compound was evaluated for the antibacterial activity against Klebsiella as fold improvement in activity with respect to imipenem.; assay type: functional

SMILES | Activity (Escherichia coli [1]) | Activity (Staphylococcus aureus [2]) | Activity (Staphylococcus aureus [3]) | Activity (Serratia [4]) | Activity (Pseudomonas aeruginosa [5]) | Activity [6] | Activity (Enterococcus [7]) | Activity (Enterobacter [8]) | Activity (Proteus [9]) | Activity (Klebsiella [10]) | Activity [11] | MIC90 (Staphylococcus aureus [15]) | MIC50 [19] | MIC50 (Staphylococcus aureus [21]) | further results
C[C@@H](O)[C@H]1C(=O)N2C(C(=O)[O-])=C(c3ccc4cccc(C[n+]5ccccc5N)c4c3)C[C@H]12 | 0.04 | 0.1 | 4.9 | 0.05 | 0.02 | 8 | 2.1 | 0.01 | 0.22 | 0.03 | 0 | – | – | – | –
C[C@H](O)[C@H]1C(=O)N2C(C(=O)[O-])=C(c3cc(C[n+]4ccc(N)cc4)c4ccccc4c3)C[C@H]12 | 0.06 | 0.42 | 11 | 0.02 | 0.01 | 24 | 2.2 | 0.02 | 0.19 | 0.02 | 0.01 | – | – | – | –
C[C@@H](O)[C@H]1C(=O)N2C(C(=O)O)=C(SCCNC=N)C[C@H]12 [IMIPENEM ANHYDROUS] | – | – | – | – | – | – | – | – | – | – | 1 | 64 µg/mL (≈ 214 µM) | 128 µg/mL (≈ 428 µM) | 32 µg/mL (≈ 107 µM) | MIC (Staphylococcus aureus [12]): 0.01 µg/mL (≈ 0.0334 µM); MIC (Staphylococcus aureus [13]): 33 µg/mL (≈ 110 µM); MIC (Klebsiella [14]): 0.29 µg/mL (≈ 0.969 µM); MIC (Proteus [16]): 0.69 µg/mL (≈ 2.3 µM); MIC (Staphylococcus aureus [17]): 70 µg/mL (≈ 234 µM); MIC (Enterobacter [18]): 0.18 µg/mL (≈ 0.601 µM); MIC (Pseudomonas aeruginosa [20]): 0.36 µg/mL (≈ 1.2 µM); MIC (Serratia [22]): 0.29 µg/mL (≈ 0.969 µM); MIC (Enterococcus [23]): 1.8 µg/mL (≈ 6.01 µM); MIC (Escherichia coli [24]): 0.19 µg/mL (≈ 0.635 µM)
C[C@@H](O)[C@H]1C(=O)N2C(C(=O)[O-])=C(c3cc(C[n+]4cccc(N)c4)c4ccccc4c3)C[C@H]12 | 0.09 | 0.39 | 6.9 | 0.03 | 0.01 | 12 | 3.2 | 0.02 | 0.13 | 0.01 | 0.01 | – | – | – | –
C[C@H](O)[C@H]1C(=O)N2C(C(=O)[O-])=C(c3cccc(-c4ccc(C[n+]5ccccc5N)cc4)c3)C[C@H]12 | 0.11 | 0.43 | 154 | 0.11 | 0.01 | 232 | 6.2 | 0.04 | 0.38 | 0.04 | 0.04 | 2 µg/mL (≈ 4.39 µM) | 2 µg/mL (≈ 4.39 µM) | 1 µg/mL (≈ 2.2 µM) | –
C[C@@H](O)[C@H]1C(=O)N2C(C(=O)[O-])=C(c3ccc4cc(C[n+]5ccc(N)cc5)ccc4c3)C[C@H]12 | 1.4 | 0.45 | 18 | 1.8 | 0.02 | 77 | 2.7 | 0.92 | 10 | – | 0.26 | 8 µg/mL (≈ 18.6 µM) | 8 µg/mL (≈ 18.6 µM) | 4 µg/mL (≈ 9.31 µM) | Activity (Klebsiella [25]): 0.4
C[C@@H](O)[C@H]1C(=O)N2C(C(=O)[O-])=C(c3ccc4cc(C[n+]5cccc(N)c5)ccc4c3)C[C@H]12 | 1.3 | 0.53 | 13 | 3 | 0.02 | 44 | 2.3 | 0.64 | 6.5 | 0.43 | 0.15 | – | – | – | –
C[C@@H](O)[C@H]1C(=O)N2C(C(=O)[O-])=C(c3ccc4ccc(C[n+]5ccc(N)cc5)cc4c3)C[C@H]12 | 0.33 | 0.53 | 16 | 0.97 | 0.01 | 55 | 4.9 | 0.17 | 3.2 | 0.25 | 0.07 | – | – | – | –
C[C@@H](O)[C@H]1C(=O)N2C(C(=O)[O-])=C(c3ccc4c(C[n+]5ccc(N)cc5)cccc4c3)C[C@H]12 | 0.4 | 0.42 | 12 | 0.69 | 0.02 | 77 | 2.7 | 0.18 | 15 | 0.21 | 0.03 | – | – | – | –
CN[C@H](CC(C)C)C(=O)N[C@H]1C(=O)N[C@@H](CC(N)=O)C(=O)N[C@H]2C(=O)N[C@H]3C(=O)N[C@H](C(=O)N[C@H](C(=O)O)c4cc(O)cc(O)c4-c4cc3ccc4O)[C@H](O)c3ccc(c(Cl)c3)Oc3cc2cc(c3O[C@@H]2O[C@H](CO)[C@@H](O)[C@H](O)[C@H]2O[C@H]2C[C@](C)(N)[C@H](O)[C@H](C)O2)Oc2ccc(cc2Cl)[C@H]1O [VANCOMYCIN] | – | – | – | – | – | – | – | – | – | – | – | 2 µg/mL (≈ 1.38 µM) | 4 µg/mL (≈ 2.76 µM) | 2 µg/mL (≈ 1.38 µM) | –
C[C@@H](O)[C@H]1C(=O)N2C(C(=O)[O-])=C(c3ccc4cccc(C[n+]5ccc(N)cc5)c4c3)C[C@H]12 | 0.09 | 0.15 | 20 | 0.07 | 0.01 | 40 | 2.4 | 0.03 | 0.48 | 0.04 | 0.01 | 8 µg/mL (≈ 18.6 µM) | 16 µg/mL (≈ 37.3 µM) | 8 µg/mL (≈ 18.6 µM) | –
C[C@H](O)[C@H]1C(=O)N2C(C(=O)[O-])=C(c3cc(C[n+]4ccccc4N)c4ccccc4c3)C[C@H]12 | 0.04 | 0.13 | 1.4 | 0.02 | 0.01 | 1.9 | 2.2 | 0.01 | 0.1 | 0.02 | 0.01 | – | – | – | –
CC(O)C1C(=O)N2C(C(=O)O)=C(c3ccc4ccccc4c3)CC12 (configuration not stated) | 0.31 | 0.5 | 3.3 | 0.09 | 0.01 | 2.7 | 2.6 | 0.1 | 2.8 | 0.08 | 0.09 | – | – | – | –
C[C@@H](O)[C@H]1C(=O)N2C(C(=O)[O-])=C(c3ccc(C[n+]4ccccc4N)cc3)C[C@H]12 | 1.7 | 0.5 | 2 | 4.4 | 0.02 | 1.6 | 12.9 | 3 | 4.2 | 1.1 | 0.11 | – | – | – | –
C[C@@H](O)[C@H]1C(=O)N2C(C(=O)[O-])=C(c3ccc4cc(C[n+]5ccccc5N)ccc4c3)C[C@H]12 | 1.4 | 0.39 | 28 | 2 | 0.02 | 323 | 4.4 | 0.85 | 5 | 0.38 | 0.2 | 4 µg/mL (≈ 9.31 µM) | 8 µg/mL (≈ 18.6 µM) | 2 µg/mL (≈ 4.66 µM) | –
